From the SangsterLogP compilation

Assay: method code SF-AS, from Mayer, M.; Testa, B.; Van, H.; Bornand-Crausaz, A. (1982). Non-additivity amd intramolecular effects in the partition coefficient of omega-functionalized alkylpyridines. Eur J Med Chem, 17(5)453-459.

| SMILES | logP |
| --- | --- |
| NC(=O)CCc1cccnc1 | -0.26 |
| OCCCc1cccnc1 | 0.6 |
| NCCCCc1ccccn1 | 0.86 |
| OCCCCc1cccnc1 | 0.92 |
| NCCCCc1cccnc1 | 0.88 |
| NCCCCCc1cccnc1 | 1.41 |
| NCCc1ccncc1 | -0.01 |
| NCCCCCc1ccccn1 | 1.32 |
| OCCc1ccccn1 | 0.12 |
| NCCc1ccccn1 | 0.08 |
| NCCc1cccnc1 | 0 |
| NCCCc1cccnc1 | 0.44 |
| OCCc1ccncc1 | 0.1 |
| NCc1ccccn1 | -0.21 |
| OCc1cccnc1 | -0.02 |
| NC(=O)CCCCc1ccncc1 | 0.42 |
| NCCCc1ccccn1 | 0.49 |
| OCCc1cccnc1 | 0.12 |
| NC(=O)CCc1ccccn1 | -0.27 |
| NCCCCCc1ccncc1 | 1.4 |
| NCCCc1ccncc1 | 0.4 |
| OCCCCCc1ccncc1 | 1.33 |

More lines, now with the values ahead:

| logP | SMILES |
| --- | --- |
| 0.86 | OCCCCc1ccccn1 |
| 1.83 | NCCCc1ccccc1 |
| 0.4 | NC(=O)CCCCc1cccnc1 |
| 0.86 | NCCCCc1ccncc1 |
| 0.9 | OCCCCc1ccncc1 |
| 0.06 | OCc1ccccn1 |
| 0.58 | OCCCc1ccncc1 |
| 1.41 | OCCCCCc1cccnc1 |
| -0.25 | NC(=O)CCc1ccncc1 |
| 1.28 | OCCCCCc1ccccn1 |
| 0.58 | OCCCc1ccccn1 |
| -0.38 | NCc1ccncc1 |
